In US4897483A, “Amino acid derivatives as antihypertensives” (Asahi Breweries Ltd., priority 1987, dated 1990):

Assays:
[1] = target: T1, rabbit lung ACE (Oryctolagus cuniculus, UniProt P12822); assay: Inhibition of rabbit lung ACE by the method of Friedland and Silverstein; format: biochemical; conditions: read-out: IC50 (concentration inhibiting 50% of the activity of rabbit lung ACE)
T1 construct: activity of rabbit lung ACE; from tissue; host or cells: rabbit lung
T1 sequence (P12822 34-1310): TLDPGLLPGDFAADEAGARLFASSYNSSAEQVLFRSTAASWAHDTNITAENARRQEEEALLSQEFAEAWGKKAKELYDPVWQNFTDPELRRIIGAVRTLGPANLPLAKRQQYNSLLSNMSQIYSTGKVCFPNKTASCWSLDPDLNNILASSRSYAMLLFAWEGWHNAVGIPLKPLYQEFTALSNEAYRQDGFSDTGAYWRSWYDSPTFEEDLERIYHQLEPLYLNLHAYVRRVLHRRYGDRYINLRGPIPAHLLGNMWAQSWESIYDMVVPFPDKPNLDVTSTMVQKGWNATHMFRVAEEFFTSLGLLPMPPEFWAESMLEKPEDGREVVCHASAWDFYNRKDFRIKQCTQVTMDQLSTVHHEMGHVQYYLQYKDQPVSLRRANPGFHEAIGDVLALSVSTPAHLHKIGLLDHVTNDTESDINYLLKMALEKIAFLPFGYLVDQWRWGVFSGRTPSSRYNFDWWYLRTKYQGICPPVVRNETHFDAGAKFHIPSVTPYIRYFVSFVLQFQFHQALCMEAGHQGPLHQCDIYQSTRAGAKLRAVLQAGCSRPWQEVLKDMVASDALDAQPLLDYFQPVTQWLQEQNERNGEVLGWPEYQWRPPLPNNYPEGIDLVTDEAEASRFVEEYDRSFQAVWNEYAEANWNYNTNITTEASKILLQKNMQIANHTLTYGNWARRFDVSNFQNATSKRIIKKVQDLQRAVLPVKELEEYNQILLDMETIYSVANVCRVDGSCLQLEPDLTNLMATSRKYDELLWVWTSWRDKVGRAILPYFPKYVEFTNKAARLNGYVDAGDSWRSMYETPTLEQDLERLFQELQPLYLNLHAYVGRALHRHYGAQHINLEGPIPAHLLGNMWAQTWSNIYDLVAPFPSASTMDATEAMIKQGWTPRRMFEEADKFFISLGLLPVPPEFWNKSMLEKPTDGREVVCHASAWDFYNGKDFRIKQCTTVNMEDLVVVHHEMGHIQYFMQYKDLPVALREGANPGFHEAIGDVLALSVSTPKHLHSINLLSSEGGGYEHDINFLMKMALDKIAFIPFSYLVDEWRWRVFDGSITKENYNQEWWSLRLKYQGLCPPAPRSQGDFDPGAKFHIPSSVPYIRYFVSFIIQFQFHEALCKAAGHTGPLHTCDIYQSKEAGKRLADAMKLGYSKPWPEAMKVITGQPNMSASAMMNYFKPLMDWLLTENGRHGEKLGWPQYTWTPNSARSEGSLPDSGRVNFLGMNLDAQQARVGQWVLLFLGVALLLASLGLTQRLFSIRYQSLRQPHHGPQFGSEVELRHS
Procedure: The evaluation of converting enzyme inhibitors is introduced from the analysis of enzyme inhibition in a test tube. One example of inhibition activity of the compounds of the present invention calculated from the method of Friedland & Silverstein [Am. J. Clin. Pathol.
*Concentration inhibiting 50% of the activity of rabbit lung ACE was
determined by the method of Friedland and Silverstein.

[2] = test system: pressor response to Angiotensin I (AI); assay: Inhibition of the pressor response to angiotensin I after i.v. administration, area under the AI inhibition response vs. time curve; format: in vivo; set-up: unit not given beside the values; conditions: test compound 50 μg/Kg i.v.; AI 300 ng/Kg into femoral vein; 0 to 360 min
Procedure: **Angiotensin I (AI, 300 ng/Kg) were injected into the femoral vein at
intervals of 10 min until the constant pressor response to AI was
180, 300 and 360 min after i.v. administration of the test compound (50
μg/Kg), and AVC (area under the curve) was calculated by the AI
inhibition response vs. time curves for 0 to 360 min.

C[C@H](N[C@@H](CCCCCC1CCNCC1)C(=O)O)C(=O)N1CCC[C@H]1C(=O)O [Compound 3, N-[1(S)-carboxy-6-(4-piperidyl)hexyl]-L-alanyl-L-proline]
IC50 [1]: 1.1 nM
(iv) AUC (area under the AI inhibition response vs. time curve) [2]: 424

NCCCC[C@H](N[C@@H](CCCCCC1CCNCC1)C(=O)O)C(=O)N1CCC[C@H]1C(=O)O [Compound 9, N^α -[1(S)-carboxy-6-(4-piperidyl)hexyl]-L-lysyl-L-proline]
IC50 [1]: 1 nM

C[C@H](N[C@@H](CCCCC1CCNCC1)C(=O)O)C(=O)N1CCC[C@H]1C(=O)O [Compound 2, N-[1(S)-carboxy-5-(4-piperidyl)pentyl]-L-alanyl-L-proline]
IC50 [1]: 1 nM
(iv) AUC (area under the AI inhibition response vs. time curve) [2]: 429

NCCCC[C@H](N[C@@H](CCCCC1CCNCC1)C(=O)O)C(=O)N1CCC[C@H]1C(=O)O [Compound 5, N^α -[1(S)-carboxy-5-(4-piperidyl)pentyl]-L-lysyl-L-proline]
IC50 [1]: 1 nM
(iv) AUC (area under the AI inhibition response vs. time curve) [2]: 460

NCCCCCCC[C@H](N[C@@H](CCCCN)C(=O)N1CCC[C@H]1C(=O)O)C(=O)O [Compound 4, N^α -[1(S)-carboxy-8-aminooctyl]-L-lysyl-L-proline]
IC50 [1]: 0.7 nM
(iv) AUC (area under the AI inhibition response vs. time curve) [2]: 431

C[C@H](N[C@@H](CCCCCC1CCNCC1)C(=O)O)C(=O)N1[C@H](C(=O)O)C[C@@H]2CCCC[C@@H]21 [Compound 10, 1-[N-[1(S)-carboxy-6-(4-piperidyl)hexyl]-L-alanyl]-(2α,3aβ,7aβ)-octahydro-1H-indole-2(S)-carboxylic acid]
IC50 [1]: 0.9 nM

CC(NC(CCCCCCN)C(=O)O)C(=O)N1CCCC1C(=O)O (stereo not drawn) [Compound 12, reference compound]
IC50 [1]: 1.4 nM
(iv) AUC (area under the AI inhibition response vs. time curve) [2]: 368

C[C@H](N[C@@H](CCCCC1CCNCC1)C(=O)O)C(=O)N1[C@H](C(=O)O)C[C@@H]2CCCC[C@@H]21 [Compound 11, 1-[N-[1(S)-carboxy-5-(4-piperidyl)pentyl]-L-alanyl]-(2α,3aβ,7aβ)-octahydro-1H-indole-2(S)-carboxylic acid]
IC50 [1]: 0.62 nM

C[C@H](N[C@@H](CCCCCCCN)C(=O)O)C(=O)N1CCC[C@H]1C(=O)O [Compound 1, N-[1(S)-carboxy-8-aminooctyl]-L-alanyl-L-proline]
IC50 [1]: 0.75 nM
(iv) AUC (area under the AI inhibition response vs. time curve) [2]: 509
